Patent publication US8518980B2, “Treatment of Duchenne muscular dystrophy” (Summit Corporation PLC, priority 2006, dated 2013)

Test system: Utrophin A promoter linked to a luciferase reporter gene (H2K/mdx/Utro A reporter cell line)
Experiment: Luciferase reporter assay (murine H2K cells)
Conditions: for activity at 10 µM: Mus musculus, H2K mdx; for Activity: Table 1, luciferase level relative to control, final concentration of 10 μM

SMILES | activity at 10 µM [%] | Activity
COc1ccc(-c2nc3ccccc3s2)cc1NC(C)=O [Example 542, N-(5-(benzo[d]thiazol-2-yl)-2-methoxyphenyl)acetamide] | 201 to 300 | –
Cc1ccc2sc(NC(=O)NC(=O)c3c(Cl)cccc3Cl)nc2c1 [Example 462, 2,6-dichloro-N-(5-methylbenzo[d]thiazol-2-ylcarbamoyl)benzamide] | < 200 | –
CCCc1nc2cc(S(=O)(=O)CC)ccc2o1 [Example 571, 5-(ethylsulfonyl)-2-propylbenzo[d]oxazole] | < 200 | –
O=[N+]([O-])c1ccc(Cl)c(-c2nc3ccccc3s2)c1 [Example 524, 2-(2-chloro-5-nitrophenyl)benzo[d]thiazole] | < 200 | –
Nc1ccc2[nH]c(-c3ccc(Cl)cc3)nc2c1 [Example 560, 2-(4-chlorophenyl)-1H-benzo[d]imidazol-5-amine] | 301 to 400 | –
CC(=O)Nc1ccc2[nH]c(-c3ccco3)nc2c1 [Example 534, N-(2-(furan-2-yl)-1H-benzo[d]imidazol-5-yl)acetamide] | < 200 | –
Cc1ccc2nc(NC(=O)c3ccco3)sc2c1 [Example 652, N-(6-methylbenzo[d]thiazol-2-yl)furan-2-carboxamide] | 301 to 400 | –
O=C(Nc1ccc(-c2nc3ccccc3s2)cc1)C1CCCO1 (stereo not shown) [Example 680, N-(4-(benzo[d]thiazol-2-yl)phenyl)tetrahydrofuran-2-carboxamide] | 201 to 300 | –
O=[N+]([O-])c1ccc2oc(-c3ccccc3)nc2c1 [Example 492, 5-nitro-2-phenylbenzo[d]oxazole] | 201 to 300 | –
CCS(=O)(=O)c1ccc2oc(S)nc2c1 [Example 574, 5-(ethylsulfonyl)benzo[d]oxazole-2-thiol] | < 200 | –
COc1ccc(-c2nc3ccccc3o2)cc1N [Example 619, 5-(benzo[d]oxazol-2-yl)-2-methoxyaniline] | > 401 | –
Cc1cc(-c2nc3ccccc3s2)ccc1[N+](=O)[O-] [Example 599, 2-(3-Methyl-4-nitrophenyl)benzo[d]thiazole] | > 401 | –
Nc1ccc2nc(-c3cccc(Cl)c3)oc2c1 [Example 598, 2-(3-Chlorophenyl)benzo[d]oxazol-6-amine] | 301 to 400 | –
Clc1ccc(-c2nc3cc4c(cc3o2)OCO4)cc1Cl [Example 361, 2-(3,4-chlorophenyl)-5,6-methylenedioxybenzoxazole] | – | + (Up to 200% relative to control)
Cn1c(-c2ccc([N+](=O)[O-])cc2)nc2ccccc21 [Example 472, 1-methyl-2-(4-nitrophenyl)-1H-benzo[d]imidazole] | < 200 | –
Cc1cc2nc(-c3ccc(N)cc3O)oc2cc1C [Example 610, 5-Amino-2-(5,6-dimethylbenzo[d]oxazol-2-yl)phenol] | > 401 | –
Nc1c(C(=O)Nc2ccc(F)cc2)sc2nc3c(cc12)CCC3 [Example 628, 3-amino-N-(4-fluorophenyl)-6,7-dihydro-5H-cyclopenta[e]thieno[2,3-b]pyridine-2-carboxamide] | > 401 | –
CCc1ccc2oc(-c3cccc(NC(C)=O)c3)nc2c1 [Example 642, N-(3-(5-ethylbenzo[d]oxazol-2-yl)phenyl)acetamide] | 301 to 400 | –
CC(=O)Nc1ccc(-c2nc3cc(Cl)c(NC(C)=O)cc3[nH]2)cc1 [Example 556, N-(4-(6-acetamido-5-chloro-1H-benzo[d]imidazol-2-yl)phenyl)acetamide] | < 200 | –
Nc1cc(-c2nc3ccccc3s2)ccc1Cl [Example 592, 5-(Benzo[d]thiazol-2-yl)-2-chloroaniline] | > 401 | –
Cc1ccc(-c2nc3ccccc3[nH]2)cc1 [Example 613, 2-p-Tolyl-1H-benzo[d]imidazole] | 301 to 400 | –
O=C(CSc1nc[nH]n1)Nc1ccc(-c2nc3ccccc3s2)cc1 [Example 685, 2-(1H-1,2,4-triazol-3-ylthio)-N-(4-(benzo[d]thiazol-2-yl)phenyl)acetamide] | 201 to 300 | –
Cc1ccc2nc(-c3ccc(C(F)(F)F)cc3)oc2c1 [Example 611, 6-Methyl-2-(4-(trifluoromethyl)phenyl)benzo[d]oxazole] | 301 to 400 | –
Cc1ccc(-c2nc3ccccc3s2)cc1N [Example 479, 5-(benzo[d]thiazol-2-yl)-2-methylaniline] | 201 to 300 | –
CNS(=O)(=O)c1ccc2nc(NC(=O)c3cccs3)sc2c1 [Example 687, N-(6-(N-methylsulfamoyl)benzo[d]thiazol-2-yl)thiophene-2-carboxamide] | 201 to 300 | –
Clc1ccc(OCc2nc3ccccc3n2Cc2ccccc2Cl)c(Cl)c1 [Example 465, 1-(2-chlorobenzyl)-2-((2,4-dichlorophenoxy)methyl)-1H-benzo[d]imidazole] | < 200 | –
Nc1ccc(-c2nc3ccccc3o2)c(O)c1 [Example 484, 5-amino-2-(benzo[d]oxazol-2-yl)phenol] | 201 to 300 | –
CCc1ccc(-c2nc3cc(N)ccc3o2)cc1 [Example 481, 2-(4-ethylphenyl)benzo[d]oxazol-5-amine] | 201 to 300 | –

SMILES | activity at 10 µM [%] | Activity
CCc1nc2cc(S(=O)(=O)CC)ccc2o1 [Example 572, 2-ethyl-5-(ethylsulfonyl)benzo[d]oxazole] | < 200 | –
Nc1cccc(-c2nc3cc(Cl)ccc3o2)c1 [Example 622, 3-(5-chlorobenzo[d]oxazol-2-yl)aniline] | > 401 | –
Cc1cc(C)c2nc(-c3ccc(N)cc3)oc2c1 [Example 590, 4-(4,6-Dimethylbenzo[d]oxazol-2-yl)aniline] | > 401 | –
Clc1ccc(-c2nc3ccccc3s2)c(Cl)c1 [Example 595, 2-(2,4-Dichlorophenyl)benzo[d]thiazole] | 201 to 300 | –
O=C(O)c1cccc(-c2ccc3oc(-c4ccc(Cl)cc4)nc3c2)c1 [Example 313, 3-(2-(4-chlorophenyl)benzo[d]oxazol-5-yl)benzoic acidd] | – | + (Up to 200% relative to control)
COc1ccc(-c2nc3cc([N+](=O)[O-])ccc3o2)cc1OC [Example 537, 2-(3,4-dimethoxyphenyl)-5-nitrobenzo[d]oxazole] | < 200 | –
CC(=O)c1ccc2oc(-c3ccc(Cl)c(Cl)c3)nc2c1 [Example 453, 1-(2′-(3″,4″-Dichlorophenyl)benzo[d]oxazol-5′-yl)ethanone] | – | ++++ (Above 401% relative to control)
O=C(Nc1ccc(-c2nc3ccccc3[nH]2)cc1)c1ccc2c(c1)OCO2 [Example 540, N-(4-(1H-benzo[d]imidazol-2-yl)phenyl)benzo[d][1,3]dioxole-5-carboxamide] | < 200 | –
O=C(Nc1cccc(-c2nc3ccccc3[nH]2)c1)c1cccs1 [Example 504, N-(3-(1H-benzo[d]imidazol-2-yl)phenyl)thiophene-2-carboxamide] | < 200 | –
Cc1ccc2oc(-c3ccc(Cl)c(NC(=O)c4ccco4)c3)nc2c1 [Example 677, N-(2-chloro-5-(5-methylbenzo[d]oxazol-2-yl)phenyl)furan-2-carboxamide] | 201 to 300 | –
O=C(Cc1cccs1)Nc1ccc(-c2nc3ccccc3[nH]2)cc1 [Example 493, N-(4-(1H-benzo[d]imidazol-2-yl)phenyl)-2-(thiophen-2-yl)acetamide] | < 200 | –
CN(C)c1ccc(-c2nc3ccccc3[nH]2)cc1 [Example 498, 4-(1H-benzo[d]imidazol-2-yl)-N,N-dimethylaniline] | < 200 | –
CCn1c(C)nc2cc(-c3ccccc3)ccc21 [Example 634, 1-ethyl-2-methyl-5-phenyl-1H-benzo[d]imidazole] | 301 to 400 | –
COc1ccc(CSc2nc3ccccc3n2C)cc1F [Example 645, 2-(3-fluoro-4-methoxybenzylthio)-1-methyl-1H-benzo[d]imidazole] | 301 to 400 | –
Cc1ccc(-c2nc3ccccc3n2C)cc1 [Example 588, 1-Methyl-2-p-tolyl-1H-benzo[d]imidazole] | 301 to 400 | –
Cc1ccc2nc(-c3ccc(N)cc3)oc2c1 [Example 506, 4-(6-methylbenzo[d]oxazol-2-yl)aniline] | < 200 | –
Cc1ccc2[nH]c(-c3ccc(N)cc3)nc2c1 [Example 532, 4-(5-methyl-1H-benzo[d]imidazol-2-yl)aniline] | < 200 | –
CN(C)c1ccc(-c2nc3cc(N)ccc3o2)cc1 [Example 491, 2-(4-(dimethylamino)phenyl)benzo[d]oxazol-5-amine] | 201 to 300 | –
Cc1ccccc1C(=O)Nc1nc2ccccc2[nH]1 [Example 648, N-(1H-benzo[d]imidazol-2-yl)-2-methylbenzamide] | 301 to 400 | –
COc1ccc(-c2nc3ccc([N+](=O)[O-])cc3o2)cc1 [Example 584, 2-(4-Methoxyphenyl)-6-nitrobenzo[d]oxazole] | 301 to 400 | –
Nc1ccc2oc(-c3cccc(Cl)c3)nc2c1 [Example 489, 2-(3-chlorophenyl)benzo[d]oxazol-5-amine] | 201 to 300 | –
COCc1nc2ccccc2[nH]1 [Example 499, 2-(methoxymethyl)-1H-benzo[d]imidazole] | < 200 | –
CC1=NN(c2nc3ccccc3s2)C(=O)/C1=C(/C)NC1CC1 [Example 546, (Z)-1-(benzo[d]thiazol-2-yl)-4-(1-(cyclopropylamino)ethylidene)-3-methyl-1H-pyrazol-5(4H)-one] | < 200 | –
Cc1ccc2[nH]c(-c3ccccc3N)nc2c1 [Example 554, 2-(5-methyl-1H-benzo[d]imidazol-2-yl)aniline] | 301 to 400 | –
O=C(Nc1ccccc1-c1nc2ccccc2[nH]1)c1ccc(S(=O)(=O)N2CCCC2)cc1 [Example 511, N-(2-(1H-benzo[d]imidazol-2-yl)phenyl)-4-(pyrrolidin-1-ylsulfonyl)benzamide] | < 200 | –
Cc1ccc2oc(-c3cc(NC(=O)c4cncc(Br)c4)ccc3O)nc2c1 [Example 684, 5-bromo-N-(4-hydroxy-3-(5-methylbenzo[d]oxazol-2-yl)phenyl)nicotinamide] | 201 to 300 | –
Oc1ccc2nc(-c3ccc(Cl)cc3)oc2c1 [Example 579, 2-(4-chlorophenyl)benzo[d]oxazol-6-ol] | > 401 | –
